Laboratory results taken from ChEMBL document CHEMBL1130782, “Syntheses and evaluation of benzodiazaborine compounds against M. tuberculosis H37Rv in vitro” (1998).
In brackets after ≈: the same amount, converted by molar mass.

Experiments:
Format in all cases: functional
Escherichia coli = assay: Compound was tested in vitro for growth inhibition activity against Escherichia coli
[1] = system: Mycobacterium tuberculosis; assay: Compound was tested in vitro for growth inhibition activity against Mycobacterium tuberculosis H37Rv in Bactec 12B media.
[2] = system: Mycobacterium tuberculosis; assay: Compound was tested in vitro for growth inhibition activity against Mycobacterium tuberculosis H37Rv in Bactec 6A media.

Compound | MIC (Escherichia coli) [µM] | MIC [1] [µM] | MIC [2] [µM]
Cc1ccc(S(=O)(=O)N2N=Cc3ccccc3B2O)cc1 | 83 (≈ 24.9 µg/mL) | 320 (≈ 96 µg/mL) | 40 (≈ 12 µg/mL)
O=C1Nc2ccccc2B(O)N1c1ccccc1 |  | 67.2 (≈ 16 µg/mL) | 33.6 (≈ 8 µg/mL)
NCCOB(c1ccccc1)c1ccccc1 |  | 285 (≈ 64.2 µg/mL) | 71 (≈ 16 µg/mL)
OB1N=C(c2cnccn2)Nc2ccccc21 |  | > 572 | > 572
CCCCN1B(O)c2ccccc2NC1=O |  | > 587 | > 587
OB1c2ccccc2N=C(S)N1c1cccnc1 |  | 63 (≈ 16.1 µg/mL) | 31.4 (≈ 8.01 µg/mL)
NNC(=O)c1ccncc1 [ISONIAZID] |  | < 0.16 | < 0.02
NC(=O)c1cnccn1 [PYRAZINAMIDE] |  | > 1600 | 1600 (≈ 197 µg/mL)
